Tests used:
rabbit platelet [1] = assay: Collagen-induced aggregation in rabbit platelets (AG-II Aggregometer); format: cell-based; design: inhibition: dose or concentration left out as unconfirmed; details: Oryctolagus cuniculus, Platelet, read-out: Inhibition effect on collagen induced aggregation in rabbit platelet
Summary of the method: (§1)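 Rabbit citrated PRP, diluted with PPP to 300,000/mm^3 platelets for ADP or 450,000/mm^3 for collagen, was preincubated with compound 1 min at 37° C. before inducer was added. ADP at 7.5×10^-5 M or collagen supernatant in Auren Beronal buffer pH 7.35; transmittance change recorded, percent inhibition derived.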

rabbit platelet [2] = assay: ADP-induced aggregation in rabbit platelets (AG-II Aggregometer); format: cell-based; design: inhibition: dose or concentration left out as unconfirmed; details: Oryctolagus cuniculus, Platelet, read-out: Inhibition effect on ADP-induced aggregation in rabbit platelet
Summary of the method: as §1

Question: With CC(=O)OC1CCC(N(C)C(=O)CCCOc2ccc3[nH]c(=O)ccc3c2)CC1 (centres unmarked) [compound 3, 6-{3-[N-Methyl-N-(4-acetyloxycyclohexyl)aminocarbonyl]propoxy}carbostyril] as the compound, how does the inhibition at 100 µM (stock) (rabbit platelet [1]; 10^-4 mole) read?
Answer: Its inhibition at 100 µM (stock) is 90.8%.

Question: And the inhibition at 10 µM (stock) (rabbit platelet [1]; 10^-5 mole)?
Answer: The inhibition at 10 µM (stock) was 84.8%.

Question: And the inhibition at 1 µM (stock) (rabbit platelet [1]; 10^-6 mole)?
Answer: The inhibition at 1 µM (stock) was 61.9%.

Question: What about the inhibition at 100 µM (stock) (rabbit platelet [2]; 10^-4 mole) of the same compound?
Answer: The inhibition at 100 µM (stock) was 91.5%.

Question: What about the inhibition at 10 µM (stock) (rabbit platelet [2]; 10^-5 mole) of the same compound?
Answer: Its inhibition at 10 µM (stock) is 75%.

Question: And the inhibition at 1 µM (stock) (rabbit platelet [2]; 10^-6 mole)?
Answer: The inhibition at 1 µM (stock) was 20.8%.

Question: How did the inhibition (rabbit platelet [1]) turn out when CN(C(=O)CCCOc1ccc2[nH]c(=O)ccc2c1)C1CCCCC1 [compound 16, 6-[3-(N-Methyl-N-cyclohexylaminocarbonyl)propoxy]carbostyril] was run?
Answer: The inhibition was 90.5%.

Question: And the inhibition (rabbit platelet [2])?
Answer: The inhibition was 91.7%.

Reference: patent US4298739A, “Novel carbostyril derivatives” (priority 1977, dated 1981)
